Results from patent US20090012115A1 (Portola Pharmaceuticals, Inc., priority 2007, published 2009).

How the values were obtained:
P2Y12 ADP receptor = P2Y12 ADP receptor (Homo sapiens, UniProt Q9H244); conditions: cited from earlier work
[1] = compared with clopidogrel; cited from earlier work
[2] = cited from earlier work
preformed thrombi = experiment: Thrombus stability / dethrombosis of preformed thrombi; type: cell-based
From the text: The addition of a TP antagonist to preformed thrombi caused dethrombosis (FIG. 5A).

platelets [3] = conditions: cited from earlier work
[4] = tested on: platelets recruited on the collagen surface; experiment: Real time perfusion chamber thrombosis assay (whole blood over collagen-coated chamber, fluorescent platelets); type: cell-based, human; conditions: for interaction with antithrombotic activity of clopidogrel: 12 healthy individuals on clopidogrel 75 mg/d, ifetroban spiked into whole blood, aspirin 325 mg/d over the third week; for antithrombotic activity versus aspirin: 100 nM or 350 nM spiked in vitro
Experimental: The experiment was performed by perfusing whole blood anticoagulated with factor Xa inhibitor (10 μM) through a human collagen type III-coated perfusion chamber. Platelets were fluorescently labeled in vitro using Rhodamine 6G (1.25 μg/ml final concentration), and thrombosis was monitored in real time by measuring the amount of fluorescent platelets recruited on the collagen surface using fluorescence microscopy. The results are depicted in FIG. 3.
The experiments are performed in the real time thrombosis perfusion chamber device. In this system, the real time thrombotic process triggered by perfusion of Factor Xa anticoagulated whole blood is studied using a collagen coated perfusion chamber at arterial shear rates.
A dose response study of the antithrombotic and anti-aggregatory effects of vehicle control, indomethacin (from 10 nM to 10 uM), and ifetroban (from 10 nM to 3 uM) spiked in vitro in the blood of aspirin-intolerant individuals before, and after treatment with clopidogrel (75 mg/d for a minimum of 5 days, n≧10) is performed. Experiments are performed in the real time perfusion chamber assay under arterial shear rates conditions. […] By using indomethacin we can confirm that Cox-1 inhibition indeed can provide additional antithrombotic properties; however, the intolerance prevents the use of a COX-1 inhibitor.
Real time perfusion chamber assays (RTTP) were performed using blood anticoagulated with Fxa inhibitor (10 uM 034) and perfused through collagen-coated capillaries (1100/sec). Thrombus formation on the collagen surface was monitored in real time using fluorescence microscopy to detect fluorescently labeled (R6G) platelets.

platelets [5] = experiment: Collagen-induced platelet aggregation (light transmittance aggregometry); type: cell-based, human; conditions: for anti-aggregatory activity, collagen-induced platelet aggregation: 1 μM, 100 nM, 350 nM
Experimental: PRP-induced platelet aggregation are performed with arachidonic acid (between 200 μM and 1 mM), U46619 (a TP agonist) (between 0.5 μM and 5 μM) and collagen (around 4 μg/ml) as platelet agonists. Indomethacin and
(§1) Light transmittance aggregometry (LTA) assays were performed by standard procedures, initiating platelet aggregation with collagen or arachidonic acid.

platelets [6] = experiment: Arachidonic acid-induced platelet aggregation (light transmittance aggregometry); type: cell-based, human; conditions: healthy volunteers and AERD patients; 1 μM, 350 nM, 100 nM; FIGS. 10A and 10B
Experimental: as §1

[7] = tested on: platelet recruitment on the injured vessel wall; experiment: Intravital microscopy, ferric chloride injury of mesenteric arteries; type: in vivo, mice; conditions: Example 5; for antithrombotic activity in P2Y12 heterozygous animals: P2Y12 heterozygous mice; for antithrombotic activity in wild type animals: wild type mice
Experimental: The methodology utilized is intravital microscopy. In this system, injury of the mesenteric arteries is performed by topical application of a filter paper that has been previously soaked into a ferric chloride solution. Monitoring of the recruitment of fluorescently labeled platelets on the injured vessel wall is performed in real time using an inverted fluorescent microscope connected to a computer.

leukotrienes = experiment: In vivo determination of the levels of leukotrienes; parameters: species or system mice; conditions: Example 5; treated animals
From the text: In vivo monitoring of gastrointestinal bleeding and determination of the levels of leukotrienes will be performed.

[8] = Gresele et al.; cited from earlier work
coronary arteries = coronary arteries of dogs; cited from earlier work
[9] = HOT trial, hypertensive patients, 75 mg/d vs placebo

P2Y12 ADP receptor, sequence (Q9H244 whole entry): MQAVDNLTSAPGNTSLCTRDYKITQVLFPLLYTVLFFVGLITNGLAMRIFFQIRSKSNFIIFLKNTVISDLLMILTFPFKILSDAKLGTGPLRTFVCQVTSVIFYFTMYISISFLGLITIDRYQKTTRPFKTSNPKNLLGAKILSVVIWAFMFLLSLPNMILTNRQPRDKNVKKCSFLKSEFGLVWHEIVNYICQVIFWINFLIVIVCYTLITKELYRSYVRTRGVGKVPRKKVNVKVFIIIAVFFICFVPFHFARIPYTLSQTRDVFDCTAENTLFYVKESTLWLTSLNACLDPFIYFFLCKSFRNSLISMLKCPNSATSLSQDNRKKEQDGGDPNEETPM

CNc1cc2[nH]c(=O)n(-c3ccc(NC(=O)NS(=O)(=O)c4ccc(Cl)s4)cc3)c(=O)c2cc1F
de-aggregation of preformed thrombi (P2Y12 ADP receptor): de-aggregate preformed thrombi | inhibition of ADP-mediated platelet aggregation (P2Y12 ADP receptor): reversible inhibitor | pharmacokinetic properties [1]: superior pharmacokinetic properties to clopidogrel

O=C(O)CC/C=C\CC[C@@H]1[C@@H](N2CCCCC2)[C@@H](O)C[C@@H]1OCc1ccc(-c2ccccc2)cc1 [GR 32191, [1R-[1α(Z),2β,3β,5α]]-(+)-7-[5-([1,1′-biphenyl]-4-ylmethoxy)-3-hydroxy-2-(1-piperidinyl)cyclopentyl]-4-heptenoic acid]
prevention of restenosis ([2]; CARPORT trial): lack activity in the prevention of restenosis

CCCCC[C@H](O)/C=C/[C@H]1C(=O)C[C@H](O)[C@@H]1C/C=C\CCCC(=O)O [PGD2, prostaglandin D2]
dethrombotic activity (preformed thrombi; physiological concentrations added to aspirinated blood, FIG. 5C): induced a profound dethrombotic activity

O=C(O)COc1ccc(CCNS(=O)(=O)c2ccccc2)cc1 [Sulotroban]
restenosis following PTCA ([2]; M-HEART-II study, 752 patients): no different than aspirin or placebo | clinical events (death, MI or clinically important restenosis) ([2]; M-HEART-II study): inferior to aspirin

CCCCC[C@H](O)/C=C/[C@@H]1[C@@H](C/C=C\CCCC(=O)O)[C@H]2CO[C@@H]1C2 [U46619]
thrombus stability (preformed thrombi; TXA2 mimetic, FIG. 5B): can promote thrombus stability

COC(=O)[C@H](c1ccccc1Cl)N1CCc2sccc2C1 [clopidogrel]
efficacy versus aspirin ([2]; CAPRIE trial): more efficacious than aspirin | relative risk reduction ([2]; CURE trial, clopidogrel with aspirin vs placebo plus aspirin, unstable angina or non-ST segment elevation MI): 20%

CC(C)Cc1ccc(C(C)C(=O)O)cc1 (stereo not shown) [ibuprofen]
effect of concomitant administration on antiaggregatory activity of aspirin (platelets [3]; Catella-Lawson et al.): reduce the antiaggregatory activity of aspirin

CCCCCNC(=O)c1coc([C@H]2[C@@H](Cc3ccccc3CCC(=O)[O-])[C@@H]3CC[C@H]2O3)n1.[Na+] [ifetroban, [1S-(1α,2α,3α,4α)]-2-[[3-[4-[(pentylamino)carbonyl]-2-oxazolyl]-7-oxabicyclo[2.2.1]hept-2-yl]methyl]benzenepropanoic acid]
inhibition of thrombosis on a clopidogrel background ([4]; 30 nM to 1 μM spiked into whole blood of normal volunteers treated with clopidogrel 75 mg/day for 2 weeks, FIG. 4): inhibited thrombosis to the same extent as aspirin | interaction with antithrombotic activity of clopidogrel ([4]; FIG. 4): synergized with the antithrombotic activity of clopidogrel | antithrombotic activity versus aspirin ([4]; AERD patients, aspirin after desensitization, FIG. 7B): significant antithrombotic activity versus aspirin | antithrombotic activity versus aspirin ([4]; healthy volunteers, FIG. 7A): significant antithrombotic activity versus aspirin | anti-aggregatory activity, collagen-induced platelet aggregation (platelets [5]; AERD patients, FIG. 8B): significant anti-aggregatory activity | concentrations at which aspirin effects on collagen-induced platelet aggregation and thrombosis were reproduced (platelets [5]; AERD patients, FIG. 8B): > 100 nM | anti-aggregatory activity, collagen-induced platelet aggregation (platelets [5]; healthy volunteers, FIG. 8A): significant anti-aggregatory activity | concentrations at which aspirin effects on collagen-induced platelet aggregation and thrombosis were reproduced (platelets [5]; normal volunteers, FIG. 8A): > 100 nM | anti-aggregatory activity, arachidonic acid-induced platelet aggregation (platelets [6]): anti-aggregatory activity | antithrombotic activity in P2Y12 heterozygous animals [7]: profound inhibition | antithrombotic activity in wild type animals [7]: at least similar antithrombotic activity | levels of leukotrienes (leukotrienes): maintained constant

COc1ccc2c(c1)c(CC(=O)O)c(C)n2C(=O)c1ccc(Cl)cc1 [indomethacin]
effect on bleeding time prolongation activity of BM 13.177 promoted by dazoxiben [8]: blocked the ability of dazoxiben

O=C(O)CCCCO/N=C(/c1cccnc1)c1cccc(C(F)(F)F)c1 [ridogrel]
enhancing fibrinolytic efficacy of streptokinase ([2]; RAPT study, 907 patients with acute myocardial infarction): not found to be superior to aspirin | preventing new ischaemic events ([2]; RAPT study): may have been more efficacious than aspirin

CC(C)(C)N/C(=N\C#N)Nc1cccc(/C(=C\CCCC(=O)O)c2cccnc2)c1 [terbogrel, 5-hexenoic acid, 6-[3-[[(cyanoamino)[(1,1-dimethylethyl)amino]methylene]amino]phenyl]-6-(3-pyridinyl)-, (E-)]
antiaggregatory activities in aspirin-treated individuals (platelets [3]; Zimmermann et al.): additional antiaggregatory activities

ortho-acetylsalicylic acid [aspirin]
interaction with antithrombotic activity of clopidogrel ([4]; FIG. 4): synergized with the antithrombotic activity of clopidogrel | effect of prior aspirin treatment on dethrombotic activity of a TP antagonist (preformed thrombi; FIG. 5C): prevented by prior aspirin treatment | antithrombotic activity in P2Y12 heterozygous animals [7]: profound inhibition | antithrombotic activity in wild type animals [7]: at least similar antithrombotic activity | levels of leukotrienes (leukotrienes): increased | individuals developing gastroduodenal ulcers ([2]; 75-325 mg doses): 1 out of 10 | reduction in vascular events ([2]; Antithrombotic Trialist's Collaboration, overall): 22% | reduction in cardiovascular events [2, 9]: 15% | reduction in myocardial infarction [2, 9]: 36% | incidence of cardiovascular death ([2]; Primary Prevention Project, 100 mg/d, at-risk patients, reduced from 1.4%): 0.8% | reduction in adverse events ([2]; hundreds of randomized clinical trials, at-risk patients): 20-25% | asthmatic adults developing severe bronchoconstriction ([2]; oral challenge with aspirin or NSAID): 5-20% | effect on prolongation in occlusion time by U63,557a with L636,499 (coronary arteries): inhibited the prolongation in occlusion time
